Laboratory results published in the NIST ThermoML archive (doi:10.1021/acs.jced.5b00934).

Conditions: Liquid, Vibrating tube method

CCC(C)O (centres undefined) [butan-2-ol]
Conditions	mass density [kg/m3]
323.15 K, 57941 kPa	822.2
323.15 K, 65042 kPa	826.2
323.16 K, 83 kPa	780.1
323.16 K, 310 kPa	780.3
323.16 K, 904 kPa	780.9
323.16 K, 2023 kPa	781.9
323.16 K, 2969 kPa	782.8
323.16 K, 22069 kPa	798.7
323.16 K, 30034 kPa	804.5
323.16 K, 32030 kPa	805.9
323.16 K, 33179 kPa	806.7
323.16 K, 34081 kPa	807.3
323.16 K, 35135 kPa	808
323.16 K, 44962 kPa	814.4
323.16 K, 48021 kPa	816.3
323.16 K, 55018 kPa	820.5
323.16 K, 60048 kPa	823.4
323.16 K, 62109 kPa	824.6
323.16 K, 66222 kPa	826.9
328.15 K, 97 kPa	775.5
328.15 K, 549 kPa	775.9
328.15 K, 2980 kPa	778.3
328.15 K, 6989 kPa	782.1
328.15 K, 9026 kPa	784
328.15 K, 10174 kPa	785
328.15 K, 15005 kPa	789.1
328.15 K, 17974 kPa	791.5
328.15 K, 22112 kPa	794.8
328.15 K, 28057 kPa	799.3
328.15 K, 30020 kPa	800.7
328.15 K, 32096 kPa	802.2
328.15 K, 33090 kPa	802.9
328.15 K, 34106 kPa	803.6
328.15 K, 38003 kPa	806.3
328.15 K, 40189 kPa	807.7
328.15 K, 42227 kPa	809.1
328.16 K, 325 kPa	775.7
328.16 K, 909 kPa	776.3
328.16 K, 1025 kPa	776.4
328.16 K, 2032 kPa	777.5
328.16 K, 4986 kPa	780.3
328.16 K, 12064 kPa	786.6
328.16 K, 20081 kPa	793.3
328.16 K, 25008 kPa	797.1
328.16 K, 33187 kPa	802.9
328.16 K, 35148 kPa	804.3
328.16 K, 45203 kPa	811.1
328.16 K, 48119 kPa	812.8
328.16 K, 50027 kPa	814
328.16 K, 52217 kPa	815.4
328.16 K, 55140 kPa	817.1
328.16 K, 58016 kPa	818.7
328.16 K, 59968 kPa	819.8
328.16 K, 61968 kPa	820.9
328.16 K, 65013 kPa	822.7
328.16 K, 66143 kPa	823.3
333.15 K, 100 kPa	770.5
333.15 K, 350 kPa	770.7
333.15 K, 494 kPa	770.9
333.15 K, 901 kPa	771.3
333.15 K, 1016 kPa	771.5
333.15 K, 2000 kPa	772.4
333.15 K, 3021 kPa	773.4
333.15 K, 5004 kPa	775.4
333.15 K, 7066 kPa	777.4
333.15 K, 8994 kPa	779.1
333.15 K, 10031 kPa	780
333.15 K, 11980 kPa	781.8
333.15 K, 15020 kPa	784.5
333.15 K, 17985 kPa	786.9
333.15 K, 22042 kPa	790.2
333.15 K, 25059 kPa	792.7
333.15 K, 28048 kPa	794.9
333.15 K, 29961 kPa	796.3
333.15 K, 32126 kPa	798
333.15 K, 32780 kPa	798.4
333.15 K, 32804 kPa	798.4
333.15 K, 33981 kPa	799.2
333.15 K, 35081 kPa	800
